Laboratory results as given in patent US20100227921A1, “AMINO ACID AND PEPTIDE CARBAMATE PRODRUGS OF […] USES THEREOF” (SHIRE LLC, priority 2009, published 2010).
“And” between values parts separate entries of the source, which are not always exact repeats. Identical values can stand only once. Marks after values point to notes of the source that are not given here.

What was measured:
[1] = Comparative bioavailability after oral administration to rats (plasma LC-MS-MS); assay type: in vivo
Procedure: Test substances, i.e., tapentadol or tapentadol valine carbamate were administered by oral gavage to groups of male Sprague Dawley rats.
Blood samples were taken at various times after administration and submitted to analysis for the parent drug and pro-drug using a validated LC-MS-MS assay. Pharmacokinetic parameters derived from the plasma analytical data were determined using Win Nonlin.

[2] = Comparative bioavailability after oral or intravenous administration to monkeys (plasma LC-MS-MS); assay type: in vivo, cynomolgus monkey; details: monkey, below the quantitative limit
Procedure: Test substances i.e., tapentadol and tapentadol valine carbamate were administered (either intravenously or orally) to a group of five male cynomolgus monkeys in a three way crossover design. The oral doses were given at 1 mg tapentadol base equivalents/kg while the intravenous dose was 0.5 mg/kg
Blood samples were taken at various times after administration and submitted to analysis for the parent drug and tapentadol valine carbamate using a validated LC-MS-MS assay. Pharmacokinetic parameters derived from the plasma analytical data were determined using Win Nonlin.

[3] = system: guinea pig small intestine myenteric plexus longitudinal muscle; assay: Electrical field stimulation response of isolated guinea pig small intestine smooth muscle (ex vivo); details: Cavia porcellus; isolated guinea pig ileum, EFS 14 Hz, non-cumulative 10 nM-30 μM; read-out: approximate EC50, effect on electrical field stimulation response
Procedure: Strips of guinea pig small intestine myenteric plexus longitudinal muscle and mounted between platinum ring electrodes. The tissue was stretched to a steady tension of about 1 g and changes in force production were recorded using sensitive transducers.
The optimal voltage for stimulation was determined while the tissue was paced with electrical field stimulation (EFS) at 14 Hz, with a pulse width of 0.5 msec (Trains of pulses for 20 seconds, every 50 seconds).
EFS at optimal voltage continued throughout the protocol (stable responses=“baseline measurement of EFS”).
The 3 test conditions employed were as follows:
(1) Vehicle (deionised water, added at equivalent volume additions to test articles), (2) Tapentadol at 6 concentrations (10 nM, 100 nM, 1 μM, 3 μM, 10 μM & 30 μM) (3) Tapentadol valine carbamate at 6 concentrations (10 nM, 100 nM, 1 μM, 3 μM, 10 μM, & 30 μM).
Following 10 minutes of baseline EFS, first addition of test article or vehicle (deionized water) was performed.
Test concentrations were added in a non-cumulative manner with PSS washes between each addition. Next, TTX (Na+ channel blocker) was added to confirm EFS responses were elicited via nerve stimulation. EFS was then stopped.

[4] = male rat, oral tapentadol 10 mg free base equiv/kg, individual animals 1-5 (5 outlier)

For `CC[C@@H](c1cccc(O)c1)[C@@H](C)CN(C)C` (racemic) [Tapentadol, (−)-(1R,2R)-3-(3-dimethyl-amino-1-ethyl-2-methyl-propyl)-phenol], the “Plasma concentration of tapentadol” value ([1]; male rat, oral tapentadol 10 mg free base equiv/kg, 4 h, individual animals 1-5 (5 outlier)) was 1.65 ng/mL and 3.61 ng/mL and 1.67 ng/mL and 2.62 ng/mL and 9.10 ng/mL, the “Plasma concentration of tapentadol” value ([1]; male rat, oral tapentadol 10 mg free base equiv/kg, 6 h, individual animals 1-5 (5 outlier)) was 1.38 ng/mL and 1.19 ng/mL and 1.25 ng/mL and 2.00 ng/mL and 5.77 ng/mL and the “Plasma concentration of tapentadol” value ([1]; male rat, oral tapentadol 10 mg free base equiv/kg, 8 h, individual animals 1-5 (5 outlier)) was 0.991 ng/mL and 1.08 ng/mL and 0.684 ng/mL and 1.27 ng/mL and 5.15 ng/mL. The “Plasma concentration of tapentadol” value ([1]; male rat, oral tapentadol 10 mg free base equiv/kg, 12 h, individual animals 1-5 (5 outlier)) was “BLQ (BLQ Values less than level of quantification (LOQ, <0.5 ng/mL))”, the “Plasma concentration of tapentadol” value ([1]; male rat, oral tapentadol 10 mg free base equiv/kg, 24 h, individual animals 1-5) was “BLQ (BLQ Values less than level of quantification (LOQ, <0.5 ng/mL))” and the AUCt of tapentadol [1, 4] was 15.4 ng·h/mL and 15.3 ng·h/mL and 14.2 ng·h/mL and 20.6 ng·h/mL and 151 ng·h/mL. For the same compound, the Cmax of tapentadol [1, 4] was 3.98 ng/mL and 3.61 ng/mL and 5.21 ng/mL and 5.87 ng/mL and 70.5 ng/mL, the “T>50%Cmax of tapentadol” value [1, 4] was 1.5 h (2×) and 1.0 h and 0.5 h and the Tmax of tapentadol [1, 4] was 4 h. The t½ of tapentadol ([1]; male rat, oral tapentadol 10 mg free base equiv/kg, individual animals 1-5 (5 outlier; animals 1 and 4 estimates)) was 6.13^c h and 2.30 h and 3.11 h and 3.83^c h and 2.59 h, the AUC of tapentadol ([1]; male rat, oral tapentadol 10 mg free base equiv/kg, individual animals 1-5 (5 outlier; animals 1 and 4 estimates, extrapolated portion >25%)) was 24.6^c ng · h/mL and 18.4 ng · h/mL and 17.4 ng · h/mL and 27.8^c ng · h/mL and 156 ng · h/mL and the “T>50%Cmax of tapentadol” value ([1]; male rat, oral tapentadol 10 mg free base equiv/kg, median, animal 5 excluded) was 1.5^a h. For the same compound, the “Plasma concentration of tapentadol” value ([1]; male rat, oral tapentadol valine carbamate 10 mg tapentadol free base equiv/kg, 0.5 h, individual animals 6-10) was “BLQ (BLQ Values less than LOQ (<0.5 ng/mL))”, the “Plasma concentration of tapentadol” value ([1]; male rat, oral tapentadol valine carbamate 10 mg tapentadol free base equiv/kg, 1 h, individual animals 6-10) was “BLQ (BLQ Values less than LOQ (<0.5 ng/mL))” and the “Plasma concentration of tapentadol” value ([1]; male rat, oral tapentadol valine carbamate 10 mg tapentadol free base equiv/kg, 2 h, individual animals 6-10) was “BLQ (BLQ Values less than LOQ (<0.5 ng/mL))”. The “Plasma concentration of tapentadol” value ([1]; male rat, oral tapentadol valine carbamate 10 mg tapentadol free base equiv/kg, 3 h, individual animals 6-10) was “BLQ (BLQ Values less than LOQ (<0.5 ng/mL))”, the “Plasma concentration of tapentadol” value ([1]; male rat, oral tapentadol valine carbamate 10 mg tapentadol free base equiv/kg, 4 h, individual animals 6-10) was “BLQ (BLQ Values less than LOQ (<0.5 ng/mL))” and the “Plasma concentration of tapentadol” value ([1]; male rat, oral tapentadol valine carbamate 10 mg tapentadol free base equiv/kg, 12 h, individual animals 6-10) was “BLQ (BLQ Values less than LOQ (<0.5 ng/mL))”. The “Plasma concentration of tapentadol” value ([1]; male rat, oral tapentadol valine carbamate 10 mg tapentadol free base equiv/kg, 24 h, individual animals 6-10) was “BLQ (BLQ Values less than LOQ (<0.5 ng/mL))”, the “T>50%Cmax of tapentadol” value ([1]; male rat, oral tapentadol valine carbamate 10 mg tapentadol free base equiv/kg, individual animals 6-10) was 2 h and the “T>50%Cmax of tapentadol” value ([1]; male rat, oral tapentadol valine carbamate 10 mg tapentadol free base equiv/kg, median) was 2^a h. The concentration at 0.5 h ([1]; male, Sprague Dawley, rat, plasma, po, 10 mg free base equiv/kg, oral tapentadol 10 mg free base equiv/kg, 0.5 h, mean, animal 5 excluded, read-out: Plasma concentration of tapentadol) was 2.73 ng/mL, the concentration at 1 h ([1]; male, Sprague Dawley, rat, plasma, po, 10 mg free base equiv/kg, oral tapentadol 10 mg free base equiv/kg, 1 h, mean, animal 5 excluded, read-out: Plasma concentration of tapentadol) was 4.34 ng/mL and the concentration at 2 h ([1]; male, Sprague Dawley, rat, plasma, po, 10 mg free base equiv/kg, oral tapentadol 10 mg free base equiv/kg, 2 h, mean, animal 5 excluded, read-out: Plasma concentration of tapentadol) was 2.44 ng/mL. For the same compound, the concentration at 3 h ([1]; male, Sprague Dawley, rat, plasma, po, 10 mg free base equiv/kg, oral tapentadol 10 mg free base equiv/kg, 3 h, mean, animal 5 excluded, read-out: Plasma concentration of tapentadol) was 1.82 ng/mL, the concentration at 4 h ([1]; male, Sprague Dawley, rat, plasma, po, 10 mg free base equiv/kg, oral tapentadol 10 mg free base equiv/kg, 4 h, mean, animal 5 excluded, read-out: Plasma concentration of tapentadol) was 2.39 ng/mL and the concentration at 6 h ([1]; male, Sprague Dawley, rat, plasma, po, 10 mg free base equiv/kg, oral tapentadol 10 mg free base equiv/kg, 6 h, mean, animal 5 excluded, read-out: Plasma concentration of tapentadol) was 1.45 ng/mL. For the same compound, the concentration at 8 h ([1]; male, Sprague Dawley, rat, plasma, po, 10 mg free base equiv/kg, oral tapentadol 10 mg free base equiv/kg, 8 h, mean, animal 5 excluded, read-out: Plasma concentration of tapentadol) was 1.01 ng/mL, the concentration at 12 h ([1]; male, Sprague Dawley, rat, plasma, po, 10 mg free base equiv/kg, oral tapentadol 10 mg free base equiv/kg, 12 h, individual animals 1-5 (5 outlier), read-out: Plasma concentration of tapentadol) was 1.09 ng/mL and the AUC ([1]; male, Sprague Dawley, rat, plasma, po, 10 mg free base equiv/kg, oral tapentadol 10 mg free base equiv/kg, mean, animal 5 and estimates excluded) was 17.9 ng·h/mL. The half-life ([1]; male, Sprague Dawley, rat, plasma, po, 10 mg free base equiv/kg, oral tapentadol 10 mg free base equiv/kg, mean, animal 5 and estimates excluded, read-out: t½ of tapentadol (converted)) was 158 min, the AUC(0-t) ([1]; male, Sprague Dawley, rat, plasma, po, 10 mg free base equiv/kg, oral tapentadol 10 mg free base equiv/kg, mean, animal 5 excluded, read-out: AUCt of tapentadol) was 16.4 ng·h/mL and the Cmax ([1]; male, Sprague Dawley, rat, plasma, po, 10 mg free base equiv/kg, oral tapentadol 10 mg free base equiv/kg, mean, animal 5 excluded, read-out: Cmax of tapentadol) was 4.67 ng/mL. For the same compound, the Tmax ([1]; male, Sprague Dawley, rat, plasma, po, 10 mg free base equiv/kg, oral tapentadol 10 mg free base equiv/kg, median, animal 5 excluded, read-out: Tmax of tapentadol) was 1 h, the “Plasma levels of tapentadol” value ([2]; after giving the drug (tapentadol)) was less than 0.5 ng/mL and the “Plasma levels of tapentadol” value ([2]; after giving the prodrug (tapentadol valine carbamate)) was less than 0.5 ng/mL. It also gave an EC50 [3] of roughly 200 nM.
